Source: PubChem BioAssay (NCI)
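These data come from cells grown in 96-well plates and exposed to compound for 48 hours at five concentrations. GI50: concentration for 50% inhibition of growth. Definition used: TGI = concentration required for complete inhibition of growth.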

Key:
Assay in all cases: NCI tumour cell line growth inhibition, 48 h
HOP-92 NSCLC = test system: HOP-92 NSCLC
BT-549 breast = test system: BT-549 breast
TK-10 renal = test system: TK-10 renal
SF-268 CNS = test system: SF-268 CNS
SK-MEL-28 melanoma = test system: SK-MEL-28 melanoma
EKVX NSCLC = test system: EKVX NSCLC
NCI-H460 lung = test system: NCI-H460 lung
LOX IMVI melanoma = test system: LOX IMVI melanoma
HCC-2998 colon = test system: HCC-2998 colon
SR leukemia = test system: SR leukemia
COLO 205 colon = test system: COLO 205 colon
SF-295 CNS = test system: SF-295 CNS
OVCAR-3 ovarian = test system: OVCAR-3 ovarian
SK-MEL-2 melanoma = test system: SK-MEL-2 melanoma
UO-31 renal = test system: UO-31 renal
UACC-62 melanoma = test system: UACC-62 melanoma
OVCAR-4 ovarian = test system: OVCAR-4 ovarian
SF-539 CNS = test system: SF-539 CNS
NCI-H23 lung = test system: NCI-H23 lung
DU-145 prostate = test system: DU-145 prostate
UACC-257 melanoma = test system: UACC-257 melanoma
SNB-19 CNS = test system: SNB-19 CNS
KM12 colon = test system: KM12 colon
SK-MEL-5 melanoma = test system: SK-MEL-5 melanoma
HT29 colon = test system: HT29 colon
NCI-H226 lung = test system: NCI-H226 lung
OVCAR-5 ovarian = test system: OVCAR-5 ovarian
NCI/ADR-RES ovarian = test system: NCI/ADR-RES ovarian
RXF 393 renal = test system: RXF 393 renal
MCF7 breast = test system: MCF7 breast
HS 578T breast = test system: HS 578T breast
A498 renal = test system: A498 renal
SK-OV-3 ovarian = test system: SK-OV-3 ovarian
CAKI-1 renal = test system: CAKI-1 renal
U251 CNS = test system: U251 CNS
T-47D breast = test system: T-47D breast
MALME-3M melanoma = test system: MALME-3M melanoma
MOLT-4 leukemia = test system: MOLT-4 leukemia
HL-60(TB) leukemia = test system: HL-60(TB) leukemia
SN12C renal = test system: SN12C renal
HCT-15 colon = test system: HCT-15 colon
RPMI-8226 leukemia = test system: RPMI-8226 leukemia
A549 NSCLC = test system: A549 NSCLC
SW-620 colon = test system: SW-620 colon
NCI-H522 lung = test system: NCI-H522 lung
CCRF-CEM leukemia = test system: CCRF-CEM leukemia
786-0 renal = test system: 786-0 renal
OVCAR-8 ovarian = test system: OVCAR-8 ovarian
SNB-75 CNS = test system: SNB-75 CNS
PC-3 prostate = test system: PC-3 prostate
HOP-62 NSCLC = test system: HOP-62 NSCLC
IGROV1 ovarian = test system: IGROV1 ovarian
K-562 leukemia = test system: K-562 leukemia
M14 melanoma = test system: M14 melanoma
MDA-MB-231 breast = test system: MDA-MB-231 breast
HCT-116 colon = test system: HCT-116 colon
ACHN renal = test system: ACHN renal

`CN[C@@H](C)C(=O)N[C@H](C(=O)N1CCC[C@H]1C(=O)N[C@H]1c2ccccc2C[C@H]1OCC#CC#CCO[C@@H]1Cc2ccccc2[C@@H]1NC(=O)[C@@H]1CCCN1C(=O)[C@@H](NC(=O)[C@H](C)NC)C1CCCCC1)C1CCCCC1` was tested, and the GI50 (HOP-92 NSCLC) was 0.479 µM, the TGI (HOP-92 NSCLC) was 2.48 µM and the GI50 (BT-549 breast) was under 0.01 µM. It also gave a GI50 (TK-10 renal) of 19.7 µM, a TGI (TK-10 renal) of 35.6 µM and a GI50 (SF-268 CNS) of 5.58 µM. The TGI (SF-268 CNS) was 13.5 µM, the GI50 (SK-MEL-28 melanoma) was 1.8 µM and the TGI (SK-MEL-28 melanoma) was 3.55 µM. For the same molecule, the GI50 (EKVX NSCLC) was 6.86 µM, the TGI (EKVX NSCLC) was 20.6 µM and the GI50 (NCI-H460 lung) was 2.66 µM. For the same molecule, the TGI (NCI-H460 lung) was 6.77 µM, the GI50 (LOX IMVI melanoma) was 1.7 µM and the TGI (LOX IMVI melanoma) was 3.38 µM. The GI50 (HCC-2998 colon) was 1.77 µM, the TGI (HCC-2998 colon) was 4.45 µM and the GI50 (SR leukemia) was 0.456 µM. For the same molecule, the TGI (SR leukemia) was 3.16 µM, the GI50 (COLO 205 colon) was 1.78 µM and the TGI (COLO 205 colon) was 3.55 µM. It also gave a GI50 (SF-295 CNS) of 0.514 µM, a TGI (SF-295 CNS) of 20.8 µM and a GI50 (OVCAR-3 ovarian) of 2.63 µM. It also gave a TGI (OVCAR-3 ovarian) of 11.9 µM, a GI50 (SK-MEL-2 melanoma) of 1.18 µM and a TGI (SK-MEL-2 melanoma) of 3.02 µM. It also gave a GI50 (UO-31 renal) of over 44.2 µM, a TGI (UO-31 renal) of over 59.3 µM and a GI50 (UACC-62 melanoma) of 4.57 µM. For the same molecule, the TGI (UACC-62 melanoma) was 9.97 µM, the GI50 (OVCAR-4 ovarian) was under 0.01 µM and the TGI (OVCAR-4 ovarian) was 10.9 µM. For the same molecule, the GI50 (SF-539 CNS) was under 0.01 µM, the TGI (SF-539 CNS) was 1.28 µM and the GI50 (NCI-H23 lung) was 0.796 µM. For the same molecule, the TGI (NCI-H23 lung) was 6.98 µM, the GI50 (DU-145 prostate) was 5.35 µM and the TGI (DU-145 prostate) was 16.5 µM. It also gave a GI50 (UACC-257 melanoma) of 13.5 µM, a TGI (UACC-257 melanoma) of 28.8 µM and a GI50 (SNB-19 CNS) of 3.24 µM. The TGI (SNB-19 CNS) was 8.87 µM, the GI50 (KM12 colon) was 2.66 µM and the TGI (KM12 colon) was 7.96 µM. The GI50 (SK-MEL-5 melanoma) was 2.37 µM, the TGI (SK-MEL-5 melanoma) was 13.7 µM and the GI50 (HT29 colon) was 3.68 µM. It also gave a TGI (HT29 colon) of 12.6 µM, a GI50 (NCI-H226 lung) of 19.6 µM and a TGI (NCI-H226 lung) of 41.5 µM. It also gave a GI50 (OVCAR-5 ovarian) of 18.1 µM, a TGI (OVCAR-5 ovarian) of 34.6 µM and a GI50 (NCI/ADR-RES ovarian) of 12 µM. It also gave a TGI (NCI/ADR-RES ovarian) of over 100 µM, a GI50 (RXF 393 renal) of under 0.0371 µM and a GI50 (MCF7 breast) of 1.47 µM. The TGI (MCF7 breast) was 3.23 µM, the GI50 (HS 578T breast) was 4.62 µM and the TGI (HS 578T breast) was 12.1 µM. The GI50 (A498 renal) was 8.8 µM, the TGI (A498 renal) was 25.1 µM and the GI50 (SK-OV-3 ovarian) was under 0.01 µM. For the same molecule, the TGI (SK-OV-3 ovarian) was under 0.01 µM, the GI50 (CAKI-1 renal) was over 68.2 µM and the TGI (CAKI-1 renal) was over 100 µM. For the same molecule, the GI50 (U251 CNS) was 1.94 µM, the TGI (U251 CNS) was 4.79 µM and the GI50 (T-47D breast) was 1.81 µM. It also gave a TGI (T-47D breast) of 4.39 µM, a GI50 (MALME-3M melanoma) of under 0.01 µM and a GI50 (MOLT-4 leukemia) of 1.92 µM. For the same molecule, the TGI (MOLT-4 leukemia) was 4.57 µM, the GI50 (HL-60(TB) leukemia) was under 0.01 µM and the TGI (HL-60(TB) leukemia) was 0.252 µM. The GI50 (SN12C renal) was 7.95 µM, the TGI (SN12C renal) was 21.6 µM and the GI50 (HCT-15 colon) was 17.5 µM. It also gave a TGI (HCT-15 colon) of 40 µM, a GI50 (RPMI-8226 leukemia) of 1.44 µM and a TGI (RPMI-8226 leukemia) of 3.9 µM. It also gave a GI50 (A549 NSCLC) of 15.5 µM, a TGI (A549 NSCLC) of 31.5 µM and a GI50 (SW-620 colon) of 3.6 µM. It also gave a TGI (SW-620 colon) of 11.5 µM, a GI50 (NCI-H522 lung) of 0.0623 µM and a TGI (NCI-H522 lung) of 2.37 µM. It also gave a GI50 (CCRF-CEM leukemia) of 1.1 µM, a TGI (CCRF-CEM leukemia) of 4.27 µM and a GI50 (786-0 renal) of 9.29 µM. It also gave a TGI (786-0 renal) of 25.3 µM, a GI50 (OVCAR-8 ovarian) of 0.452 µM and a TGI (OVCAR-8 ovarian) of 8.31 µM. For the same molecule, the GI50 (SNB-75 CNS) was under 0.01 µM, the TGI (SNB-75 CNS) was 1.16 µM and the GI50 (PC-3 prostate) was 6.04 µM. The TGI (PC-3 prostate) was 18.7 µM, the GI50 (HOP-62 NSCLC) was 0.422 µM and the TGI (HOP-62 NSCLC) was 16 µM. The GI50 (IGROV1 ovarian) was 6.41 µM, the TGI (IGROV1 ovarian) was 21 µM and the GI50 (K-562 leukemia) was 2 µM. The TGI (K-562 leukemia) was 4.66 µM, the GI50 (M14 melanoma) was 5.72 µM and the TGI (M14 melanoma) was 18 µM. It also gave a GI50 (MDA-MB-231 breast) of under 0.01 µM, a GI50 (HCT-116 colon) of 3.68 µM and a TGI (HCT-116 colon) of 14.1 µM. It also gave a GI50 (ACHN renal) of 14.4 µM and a TGI (ACHN renal) of 28.5 µM.
